Assays:
U937 cells = test: DNA analysis by flow cytometry of U937 cells after apoptosis induction; assay type: cell-based; conditions: 40 μM 7β hydroxycholesterol
Description: U937 cells are grown in a humidified 5% CO2 atmosphere at 37° C., using RPMI 1640 medium with Glutamax-I, supplemented with 10% heat-inactivated fetal calf serum, 1 mM sodium pyruvate, non-essential amino acids and gentamicin icin at 5 μg/mL Cells are usually plated at an initial conentration of 1.10^5/ml. Apoptosis induction is achieved by 40 μM 7β hydroxycholesterol- or 5 μg/ml actinomycin D-treatment of U937 cells at 37° C. during 8 to 24 hours. Cells have to be seeded at 3 to 4.10^5 cells per ml 6 h before treatment. Cell supernatant is obtained by centrifugation of treated cells at 500 g during 7 min and CaCl2 is added to a final concentration of 10 mM before addition of 200 μl/well of supernatant. For each experiment, a control without 7β hydroxycholesterol or actinomycin D has to be performed and culture medium containing 10% fetal calf serum should also be tested. It has to be emphasized that the content of microparticles of 10% fetal calf serum was low, probably due to removal of most of the cell fragments at sterilizing ultrafiltration. The amount of captured microparticles is determined using the prothrombinase assay.
The Prothrombinase Activity is Correlated with DNA Analysis by Flow Cytometry (Table 2)

[1] = Storage stability of biotinylated annexin V; assay type: physicochemical
Description: After 90 min at 25° C., the reaction is stopped by adding IM Lysine/HCl to a final concentration of 10 mM. The biotinylated annexin V is finally dialysed overnight at 4° C. against Storage buffer.

CC(C)CCC[C@@H](C)[C@H]1CC[C@H]2[C@@H]3[C@@H](O)C=C4C[C@@H](O)CC[C@]4(C)[C@H]3CC[C@]12C [7β-hydroxycholesterol]
% of hypodiploid DNA (U937 cells; 0 h treatment): 2.75%
% of hypodiploid DNA (U937 cells; 8 h treatment): 9.43%
% of hypodiploid DNA (U937 cells; 10 h treatment): 12.58%
% of hypodiploid DNA (U937 cells; 12 h treatment): 18.31%
% of hypodiploid DNA (U937 cells; 20 h treatment): 35.03%
% of hypodiploid DNA (U937 cells; 22 h treatment): 41.54%

annexin-V^Bi: Human placenta annexin V biotinylated with biotin-X-OSu, insolubilized onto streptavidin-coated plates as capture receptor
storage stability ([1]; stored below 0° C.): stable for weeks
storage stability (anti-phospholipid potential) ([1]; stored for months at −80° C.): without detectable loss of anti-phospholipid potential
